Where a name gives a salt, the structure may show the parent alone.
Molecular target: T1, human chemokine receptor 2 isoform B (Homo sapiens, UniProt P41597)
T1 construct: host or cells: CHOK1-CCR2B-A5 (CHO-K1)
T1 sequence (P41597 1-360 isoform P41597-2): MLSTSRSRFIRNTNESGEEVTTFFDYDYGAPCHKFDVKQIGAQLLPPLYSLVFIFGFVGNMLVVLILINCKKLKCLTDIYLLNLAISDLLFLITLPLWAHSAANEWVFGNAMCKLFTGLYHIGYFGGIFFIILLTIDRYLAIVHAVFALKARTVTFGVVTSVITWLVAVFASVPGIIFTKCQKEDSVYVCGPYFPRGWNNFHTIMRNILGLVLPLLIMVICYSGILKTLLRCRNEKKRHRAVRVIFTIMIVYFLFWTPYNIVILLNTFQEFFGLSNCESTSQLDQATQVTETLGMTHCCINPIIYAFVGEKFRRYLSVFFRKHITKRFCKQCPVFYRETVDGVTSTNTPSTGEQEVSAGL
Test: Calcium mobilization assay (FLIPR, CHOK1-CCR2B-A5 cells, 20 nM MCP-1)
Type: cell-based
Conditions: Ca mobilisation assay, CCR2, antagonist activity vs 20 nM MCP-1
Description: CHOK1-CCR2B-A5 cells (from Euroscreen) stably overexpressing the human chemokine receptor 2 isoform B were cultured in Nutrient Hams F12 medium supplemented with 5% FBS, 100 U/ml penicillin, 100 μg/ml streptomycin, 400 μg/ml G418 and 5 μg/ml puromycin.
For the assay cells were grown overnight in 384-well black clear flat bottom polystyrene plates (Costar) at 37° C. at 5% CO2. After washing with DMEM, 20 mM Hepes, 2.5 mM probenecid, 0.1% BSA (DMEM assay buffer) cells were loaded with 4 μM Fluo-4 in the same DMEM assay buffer for 2 hours at 30° C. Excess dye was removed and cells were washed with DMEM assay buffer. 384-well compound plates were prepared with DMEM assay buffer/0.5% DMSO with or without various concentrations of test compounds. Usually compounds were tested for agonist and antagonist activity.
Test compounds were added to the assay plate and agonist activity was monitored as fluorescence for 80 seconds with a FLIPR (488 nm excitation; 510-570 nm emission; Molecular Devices). After 20-30 min. of incubation at 30° C., 20 nM MCP-1 (R&D; Roche) was added and fluorescence was monitored again for 80 seconds. Increases in intracellular calcium are reported as maximum fluorescence after agonist exposure minus basal fluorescence before exposure. Antagonist activity is indicated as inhibitor concentration required for 50% inhibition of specific calcium increases.

Row | IC50 | Structure (SMILES)
1 | 216 nM | CC1CCN(CCCN2CCN(C(=O)C=Cc3ccc(Cl)c(F)c3)CCC2=O)CC1O (single isomer, unassigned) [Example 491, 1-[(E)-3-(4-Chloro-3-fluoro-phenyl)-acryloyl]-4-[3-((+,cis)-3-hydroxy-4-methyl-piperidin-1-yl)-propyl]-[1,4]diazepan-5-one]
2 | 463 nM | O=C(/C=C/c1ccc(Cl)c(Cl)c1)N1CCC(=O)N(CCCCN2CCN(C3CC3)CC2)CC1 [Example 437]
3 | 129 nM | O=C(/C=C/c1ccc(Cl)c(Cl)c1)N1CCC(=O)N(CC(O)CN2CCCC(O)C2)CC1 (racemic) [Example 281]
4 | 832 nM | CN(CCO)CCCCN1CCN(C(=O)/C=C/c2ccc(Cl)c(Cl)c2)CCC1=O [Example 460]
5 | 265 nM | CC1(CO)CCN(CC(O)CN2CCN(C(=O)/C=C/c3ccc(Cl)c(Cl)c3)CCC2=O)CC1 (racemic) [Example 319]
6 | 118 nM | C[C@H]1CCN(CCCN2CCN(C(=O)/C=C/c3ccc(F)c(Cl)c3)CCC2=O)C[C@H]1O [Example 190, 1-[(E)-3-(3-Chloro-4-fluoro-phenyl)-acryloyl]-4-[3-((+, cis)-3-hydroxy-4-methyl-piperidin-1-yl)-propyl]-[1,4]diazepan-5-one]
7 | 25 nM | CC1CCN(CCCN2CCN(C(=O)/C=C/c3ccc(F)c(Cl)c3)CCC2=O)CC1O (single isomer, unassigned) [Example 191, 1-[(E)-3-(3-Chloro-4-fluoro-phenyl)-acryloyl]-4-[3-((−, cis)-3-hydroxy-4-methyl-piperidin-1-yl)-propyl]-[1,4]diazepan-5-one]
8 | 92 nM | CC1(CO)CCCCN1CCCCN1CCN(C(=O)/C=C/c2ccc(Cl)c(Cl)c2)CCC1=O (racemic) [Example 447]
9 | 133 nM | CC1CN(CCCN2CCN(C(=O)/C=C/c3ccc(Cl)c(Cl)c3)CCC2=O)CCC1O (racemic) [Example 243]
10 | 214 nM | COC[C@H]1CCN(CCCN2CCN(C(=O)/C=C/c3ccc(Cl)c(Cl)c3)CCC2=O)C[C@H]1O (racemic) [Example 267, (rac,cis)-1-[(E)-3-(3,4-Dichloro-phenyl)-acryloyl]-4-[3-(3-hydroxy-4-methoxymethyl-piperidin-1-yl)-propyl]-[1,4]diazepan-5-one]
11 | 540 nM | CCN(CC)C1CCN(CCCN2CCN(C(=O)/C=C/c3ccc(Cl)c(Cl)c3)CCC2=O)C1 (racemic) [Example 278, (rac)-1-[(E)-3-(3,4-Dichloro-phenyl)-acryloyl]-4-[3-(3-diethylamino-pyrollidin-1-yl)-propyl]-[1,4]diazepan-5-one]
12 | 112 nM | CC1CCCN(CCCN2CCN(C(=O)/C=C/c3ccc(Cl)c(Cl)c3)CCC2=O)C1 (racemic) [Example 235]
13 | 544 nM | O=C(/C=C/c1ccc(Cl)c(Cl)c1)N1CCC(=O)N(CCCCN2CC[C@@H](O)[C@H](O)C2)CC1 (racemic) [Example 164, 1-[(E)-3-(3,4-Dichloro-phenyl)-acryloyl]-4-[4-((3RS,4RS)-3,4-dihydroxy-piperidin-1-yl)-butyl]-[1,4]diazepan-5-one hydrochloride]
14 | 22 nM | COC(=O)NC1CCN(CCCCN2CCN(C(=O)/C=C/c3ccc(Cl)c(Cl)c3)CCC2=O)CC1 [Example 441]
15 | 504 nM | C[C@H]1[C@H](O)CCCN1CC(O)CCN1CCN(C(=O)/C=C/c2ccc(Cl)c(Cl)c2)CCC1=O (relative stereo) [Example 362]
16 | 459 nM | O=C(/C=C/c1ccc(Cl)c(Cl)c1)N1CCC(=O)N(CCN2CCC[C@H]2CO)CC1 [Example 117, (S)-1-[(E)-3-(3,4-Dichloro-phenyl)-acryloyl]-4-[3-(2-hydroxymethyl-pyrrolidin-1-yl)-ethyl]-[1,4]diazepan-5-one]
17 | 1180 nM | COCCN(C)CCCN1CCN(C(=O)/C=C/c2ccc(Cl)c(Cl)c2)CCC1=O [Example 41, 1-[(E)-3-(3,4-Dichloro-phenyl)-acryloyl]-4-{3-[(2-methoxy-ethyl)-methyl-amino]-propyl}-[1,4]diazepan-5-one]
18 | 1120 nM | COCC1CCCN(CC(O)CN2CCN(C(=O)/C=C/c3ccc(Cl)c(Cl)c3)CCC2=O)C1 (racemic) [Example 293]
19 | 464 nM | C[C@@H]1[C@H](O)CCCN1CCCN1CCN(C(=O)/C=C/c2ccc(Cl)c(Cl)c2)CCC1=O (racemic) [Example 226, (rac,cis)-1-[(E)-3-(3,4-Dichloro-phenyl)-acryloyl]-4-[3-(3-hydroxy-2-methyl-piperidin-1-yl)-propyl]-[1,4]diazepan-5-one]
20 | 2 nM | O=C(/C=C/c1ccc(Cl)c(Cl)c1)N1CCC(=O)N(C[C@@H](O)CN2CCC3(CC3)C(O)C2)CC1 (stereo partly drawn) [Example 332, 1-[(E)-3-(3,4-Dichloro-phenyl)-acryloyl]-4-[(S)-2-hydroxy-3-((+)-4-hydroxy-6-aza-spiro[2.5]oct-6-yl)-propyl]-[1,4]diazepan-5-one]

Row | IC50 | Structure (SMILES)
21 | 263 nM | COCCN1CCN(CCCCN2CCN(C(=O)/C=C/c3ccc(Cl)c(Cl)c3)CCC2=O)CC1 [Example 439]
22 | 16 nM | COCC1CCCN(CCCCN2CCN(C(=O)/C=C/c3ccc(Cl)c(Cl)c3)CCC2=O)C1 (racemic) [Example 432]
23 | 53 nM | O=C(/C=C/c1ccc(Cl)c(Cl)c1)N1CCC(=O)N(CCCCN2CCC[C@H](O)[C@@H]2CO)CC1 (racemic) [Example 480]
24 | 26 nM | CC1CCN(CCCN2CCN(C(=O)C=Cc3ccc(Cl)c(F)c3)CCC2=O)CC1O (single isomer, unassigned) [Example 492, 1-[(E)-3-(4-Chloro-3-fluoro-phenyl)-acryloyl]-4-[3-((−,cis)-3-hydroxy-4-methyl-piperidin-1-yl)-propyl]-[1,4]diazepan-5-one]
25 | 1470 nM | O=C(/C=C/c1cccc(Cl)c1)N1CCC(=O)N(CCN2CCC(c3ccccc3)CC2)CC1 [Example 32, 1-[(E)-3-Chloro-phenyl-acryloyl]-4-{2-[4-phenyl-piperidin-1-yl]-ethyl}-[1,4]diazepan-5-one]
26 | 341 nM | CC(=O)NC1CCN(CC(O)CCN2CCN(C(=O)/C=C/c3ccc(Cl)c(Cl)c3)CCC2=O)CC1 (racemic) [Example 370]
27 | 281 nM | O=C(/C=C/c1ccc(Cl)c(Cl)c1)N1CCC(=O)N(CC(O)CN2CCN(C3CCCC3)CC2)CC1 (racemic) [Example 298]
28 | 1170 nM | O=C(/C=C/c1ccc(Cl)c(Cl)c1)N1CCC(=O)N(CCCN2CCC(O)(c3ncco3)CC2)CC1 [Example 85, 1-[(E)-3-(3,4-Dichloro-phenyl)-acryloyl]-4-[3-(4-hydroxy-4-oxazol-2-yl-piperidin-1-yl)-propyl]-[1,4]diazepan-5-one]
29 | 6 nM | CC1(CO)CCN(CC(O)CN2CCN(C(=O)C=Cc3ccc(Cl)c(Cl)c3)CCC2=O)CC1O (single isomer, unassigned) [Example 330]
30 | 218 nM | O=C(C=Cc1ccc(Cl)c(Cl)c1)N1CCC(=O)N(CCCN2CCC(O)C(F)C2)CC1 (mixture of isomers) [Example 231, (rac,trans)-1-[(E)-3-(3,4-Dichloro-phenyl)-acryloyl]-4-[3-(3-fluoro-4-hydroxy-piperidin-1-yl)-propyl]-[1,4]diazepan-5-one]
31 | 641 nM | O=C(C=Cc1ccc(Cl)c(Cl)c1)N1CCC(=O)N(CCNC2CC3CCC2C3)CC1 (racemic) [Example 110, (+/−)-4-[3-(Bicyclo[2.2.1]hept-2-ylamino)ethyl]-1-[(E)-3-(3,4-dichloro-phenyl)-acryloyl]-[1,4]diazepan-5-one]
32 | 199 nM | O=C(/C=C/c1ccc(Cl)c(Cl)c1)N1CCC(=O)N(CC(O)CN2CCCCC2CO)CC1 (racemic) [Example 290]
33 | 15 nM | O=C(/C=C/c1ccc(F)c(Cl)c1)N1CCC(=O)N(CCCN2CCC3(CC3)C(O)C2)CC1 (stereo not drawn) [Example 192]
34 | 981 nM | CC1CN(CC(O)CN2CCN(C(=O)/C=C/c3ccc(Cl)c(Cl)c3)CCC2=O)CCC1O (racemic) [Example 300]
35 | 264 nM | CC1CN(CCCCN2CCN(C(=O)/C=C/c3ccc(F)c(Cl)c3)CCC2=O)CCC1O (racemic) [Example 400]
36 | 96 nM | O=C(/C=C/c1ccc(F)c(Cl)c1)N1CCC(=O)N(C[C@@H](O)CN2CCCCC2)CC1 [Example 175, 1-[(E)-3-(3-Chloro-4-fluoro-phenyl)-acryloyl]-4-((S)-2-hydroxy-3-piperidin-1-yl-propyl)-[1,4]diazepan-5-one]
37 | 267 nM | CC1(CO)CCN(CCCCN2CCN(C(=O)/C=C/c3ccc(Cl)c(Cl)c3)CCC2=O)CC1 (racemic) [Example 459]
38 | 1140 nM | CC1CCN(CCN2CCN(C(=O)/C=C/c3ccc(Cl)c(Cl)c3)CCC2=O)CC1 [Example 120, 1-[(E)-3-(3,4-Dichloro-phenyl)-acryloyl]-4-[3-(4-methyl-piperidin-1-yl)-ethyl]-[1,4]diazepan-5-one]
39 | 726 nM | COC[C@H]1CCN(CCCN2CCN(C(=O)/C=C/c3ccc(F)c(Cl)c3)CCC2=O)C[C@H]1O (racemic) [Example 216]
